Where two headings read alike, the source gives them in different places. Bridge positions count the residues as written; N and C are the ends. Peptide text beside a SMILES is read from it. * marks the point of attachment. CH3O(CH2CH2O)11CH2CH2CO = COCCOCCOCCOCCOCCOCCOCCOCCOCCOCCOCCOCCC(=O)*
Experiments:
[1] = target: neutral endopeptidase (NEP) (Homo sapiens, UniProt P08473); assay: In vitro neutral endopeptidase (NEP) cleavage assay; conditions: human, pH 7
Method in brief: (§1)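 Recombinant human NEP (1 ug/mL final) incubated with 100 uM CNP variant in 0.1 M Tris, pH 7, at 37° C for various times, then quenched with EDTA (10 mM final) and heat. Samples reduced and analysed by HPLC and mass spectrometry. Half-life derived from loss of intact variant over time.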

Recombinant human NEP = Recombinant human NEP (Homo sapiens, UniProt P08473); assay: as above
Method in brief: as §1

NPR-B = target: T1, NPR-B (Mus musculus, UniProt Q6VVW5); assay: Stimulation of cGMP production in NIH3T3 cells; format: cell-based, Murine; conditions: for cGMP response relative to 1 uM CNP22 (%) at 0.01 µM: read-out: cGMP Response rel. to 1 uM CNP22, 10 nM; for cGMP response relative to 1 uM CNP22 (%) at 1 µM: read-out: cGMP Response rel. to 1 uM CNP22, 1 uM
T1 construct: Murine NIH3T3 cells express endogenously the CNP signaling receptor, NPR-B; endogenous in cells; host or cells: NIH3T3 (murine fibroblasts)
T1 sequence (Q6VVW5 17-1047): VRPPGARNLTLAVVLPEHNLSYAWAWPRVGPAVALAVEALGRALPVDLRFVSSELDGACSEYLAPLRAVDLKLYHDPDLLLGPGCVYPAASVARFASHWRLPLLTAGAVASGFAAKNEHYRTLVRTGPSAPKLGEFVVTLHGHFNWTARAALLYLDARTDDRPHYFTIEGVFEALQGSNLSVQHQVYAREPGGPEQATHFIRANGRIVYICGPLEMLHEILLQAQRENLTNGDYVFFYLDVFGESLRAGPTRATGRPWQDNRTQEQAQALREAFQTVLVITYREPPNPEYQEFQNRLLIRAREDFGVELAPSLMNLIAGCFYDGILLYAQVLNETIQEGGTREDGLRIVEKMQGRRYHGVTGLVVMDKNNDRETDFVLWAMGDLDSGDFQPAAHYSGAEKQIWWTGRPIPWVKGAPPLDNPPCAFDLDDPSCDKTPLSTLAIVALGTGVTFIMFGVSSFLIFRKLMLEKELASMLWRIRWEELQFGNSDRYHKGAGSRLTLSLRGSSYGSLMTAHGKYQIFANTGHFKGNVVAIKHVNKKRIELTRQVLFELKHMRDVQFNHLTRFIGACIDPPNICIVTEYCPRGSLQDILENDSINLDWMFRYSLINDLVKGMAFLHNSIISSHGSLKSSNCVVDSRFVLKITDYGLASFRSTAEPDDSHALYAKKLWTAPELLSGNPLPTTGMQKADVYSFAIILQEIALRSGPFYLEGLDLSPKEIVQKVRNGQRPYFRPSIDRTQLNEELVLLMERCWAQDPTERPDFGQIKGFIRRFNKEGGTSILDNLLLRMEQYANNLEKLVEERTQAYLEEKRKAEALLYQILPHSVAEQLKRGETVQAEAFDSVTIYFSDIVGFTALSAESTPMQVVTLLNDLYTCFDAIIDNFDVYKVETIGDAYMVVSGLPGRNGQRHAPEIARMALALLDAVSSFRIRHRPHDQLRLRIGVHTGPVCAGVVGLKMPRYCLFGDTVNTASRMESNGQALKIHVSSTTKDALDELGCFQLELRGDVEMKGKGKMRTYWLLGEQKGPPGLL

[2] = in vitro NEP cleavage assay, assay period 160 minutes
[3] = NIH3T3 cells, 10 nM natriuretic peptide, normalized to cell number and cGMP production with 1 uM wtCNP22
[4] = NIH3T3 cells, 1 uM natriuretic peptide, normalized to cell number and cGMP production with 1 uM wtCNP22

Chain of Recombinant human NEP (P08473 whole entry): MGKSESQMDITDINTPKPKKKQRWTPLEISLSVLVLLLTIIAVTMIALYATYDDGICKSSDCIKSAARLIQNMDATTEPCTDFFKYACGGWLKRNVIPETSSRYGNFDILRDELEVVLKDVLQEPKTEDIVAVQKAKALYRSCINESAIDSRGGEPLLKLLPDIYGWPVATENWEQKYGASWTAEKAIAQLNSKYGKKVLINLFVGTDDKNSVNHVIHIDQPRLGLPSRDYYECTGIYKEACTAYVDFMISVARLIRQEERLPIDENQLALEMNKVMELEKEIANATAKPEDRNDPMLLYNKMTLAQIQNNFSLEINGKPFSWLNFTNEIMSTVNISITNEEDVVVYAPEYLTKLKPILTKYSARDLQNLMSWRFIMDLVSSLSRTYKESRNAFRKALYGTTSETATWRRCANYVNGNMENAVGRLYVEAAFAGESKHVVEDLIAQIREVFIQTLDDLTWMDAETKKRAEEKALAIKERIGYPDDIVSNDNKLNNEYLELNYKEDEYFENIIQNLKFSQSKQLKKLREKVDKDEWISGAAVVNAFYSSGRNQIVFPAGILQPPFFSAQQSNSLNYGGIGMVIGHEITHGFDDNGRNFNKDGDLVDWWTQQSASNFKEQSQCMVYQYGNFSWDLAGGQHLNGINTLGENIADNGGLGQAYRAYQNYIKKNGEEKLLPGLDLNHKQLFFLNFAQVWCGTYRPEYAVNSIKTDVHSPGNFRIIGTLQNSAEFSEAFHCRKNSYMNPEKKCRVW
Chain of neutral endopeptidase (NEP) (P08473 whole entry): as above

cGMP response relative to 1 uM CNP22 (%) at 0.01 µM (NPR-B; [3]) [%]	cGMP response relative to 1 uM CNP22 (%) at 1 µM (NPR-B; [4]) [%]	Structure (SMILES)	half-life at 100 uM [1] [h]	half-life in comparison to wtCNP22 (Recombinant human NEP; NEP at 1 ug/ml)	resistance to cleavage at the Cys6-Phe7 bond relative to wtCNP22 (Recombinant human NEP; data not shown)	resistance to cleavage of the Gly8-Leu9 bond (Recombinant human NEP; in the presence of 1 ug/mL NEP, data not shown)	cGMP response relative to 1 uM CNP22 (%) at 0.01 µM (NPR-B; NIH3T3, […]) [%]	cGMP response relative to 1 uM CNP22 (%) at 1 µM (NPR-B; NIH3T3, […]) [%]	resistance to NEP cleavage/degradation (in words) (Recombinant human NEP; [2])	resistance to NEP cleavage/degradation (in words) (Recombinant human NEP)	NPR-B stimulation activity / cGMP production compared with wtCNP22 (in words) (NPR-B; NIH3T3 cells)
–	–	CC[C@H](C)[C@@H]1NC(=O)[C@H](CCCNC(=N)N)NC(=O)[C@H](CC(=O)O)NC(=O)[C@H](CC(C)C)NC(=O)[C@H](CCCCN)NC(=O)[C@H](CC(C)C)NC(=O)CNC(=O)[C@H](Cc2cccc(Cl)c2)NC(=O)[C@@H](NC(=O)CNC(=O)[C@H](CCCCN)NC(=O)[C@H](CO)NC(=O)[C@H](CC(C)C)NC(=O)CN)CSSC[C@@H](C(=O)O)NC(=O)CNC(=O)[C@H](CC(C)C)NC(=O)CNC(=O)[C@H](CO)NC(=O)[C@H](CCSC)NC(=O)[C@H](CO)NC(=O)CNC1=O [G]	2.25	about 1.5 times	resistance or improved resistance	exhibited resistance	17	93	–	–	–
–	–	CC[C@H](C)[C@@H]1NC(=O)[C@H](CCCNC(=N)N)NC(=O)[C@H](CC(=O)O)NC(=O)[C@H](CC(C)C)N(C)C(=O)[C@H](CCCCN)NC(=O)[C@H](CC(C)C)N(C)C(=O)CNC(=O)[C@H](Cc2ccccc2)NC(=O)[C@@H](NC(=O)CNC(=O)[C@H](CCCCN)NC(=O)[C@H](CO)NC(=O)[C@H](CC(C)C)NC(=O)CN)CSSC[C@@H](C(=O)O)NC(=O)CNC(=O)[C@H](CC(C)C)N(C)C(=O)CNC(=O)[C@H](CO)NC(=O)[C@H](CCSC)NC(=O)[C@H](CO)NC(=O)CNC1=O [L]	0.5	–	–	–	18	10	significantly shorter half-life	–	–
–	–	CC[C@H](C)[C@@H]1NC(=O)[C@H](CCCNC(=N)N)NC(=O)[C@H](CC(=O)O)NC(=O)[C@H](CC(C)C)N(C)C(=O)[C@H](CCCCN)NC(=O)[C@H](CC(C)C)N(C)C(=O)CNC(=O)[C@H](Cc2ccccc2)NC(=O)[C@@H](NC(=O)CNC(=O)[C@H](CCCCN)NC(=O)[C@H](CO)NC(=O)[C@H](CC(C)C)NC(=O)CN)CSSC[C@@H](C(=O)O)NC(=O)CNC(=O)[C@H](CC(C)C)NC(=O)CNC(=O)[C@H](CO)NC(=O)[C@H](CCSC)NC(=O)[C@H](CO)NC(=O)CNC1=O [M]	> 2.67	–	–	–	1	11	greatest resistance to NEP cleavage	–	–
–	–	CC[C@@H](C)[C@H]1NC(=O)[C@@H](CCCNC(=N)N)NC(=O)[C@@H](CC(=O)O)NC(=O)[C@@H](CC(C)C)NC(=O)[C@@H](CCCCN)NC(=O)[C@@H](CC(C)C)NC(=O)CNC(=O)[C@@H](Cc2ccccc2)NC(=O)[C@H](NC(=O)CNC(=O)[C@@H](CCCCN)NC(=O)[C@@H](CO)NC(=O)[C@@H](CC(C)C)NC(=O)CN)CSSC[C@H](C(=O)O)NC(=O)CNC(=O)[C@@H](CC(C)C)NC(=O)CNC(=O)[C@@H](CO)NC(=O)[C@@H](CCSC)NC(=O)[C@@H](CO)NC(=O)CNC1=O [N]	> 2.67	–	–	–	2	1	greatest resistance to NEP cleavage	–	–
40 ± 2	99 ± 13	CC[C@H](C)[C@@H]1NC(=O)[C@H](CCCNC(=N)N)NC(=O)[C@H](CC(=O)O)NC(=O)[C@H](CC(C)C)NC(=O)[C@H](CCCCN)NC(=O)[C@H](CC(C)C)NC(=O)CNC(=O)[C@H](Cc2ccccc2)NC(=O)[C@@H](NC(=O)CNC(=O)[C@H](CCCNC(=N)N)NC(=O)[C@H](CO)NC(=O)[C@H](CC(C)C)NC(=O)CNC(=O)[C@H](CCCNC(=N)N)NC(=O)[C@H](CCCNC(=N)N)NC(=O)[C@H](CC(N)=O)NC(=O)[C@H](C)NC(=O)CNC(=O)CCOCCOCCOCCOCCOCCOCCOCCOCCOCCOCCOCCOC)CSSC[C@@H](C(=O)O)NC(=O)CNC(=O)[C@H](CC(C)C)NC(=O)CNC(=O)[C@H](CO)NC(=O)[C@H](CCSC)NC(=O)[C@H](CO)NC(=O)CNC1=O [PEO12-GANRR-CNP22, K4R (CNP27)] ({CH3O(CH2CH2O)11CH2CH2CO}-GANRRGLSRGCFGLKLDRIGSMSGLGC-OH; disulfide 11-27; C-terminus assumed)	> 2.67	–	–	–	–	–	–	much more resistant to NEP degradation than CNP22	substantially the same NPR-B stimulation activity as CNP22
23 ± 2	93 ± 19	CC[C@H](C)[C@@H]1NC(=O)[C@H](CCCNC(=N)N)NC(=O)[C@H](CC(=O)O)NC(=O)[C@H](CC(C)C)NC(=O)[C@H](CCCCN)NC(=O)[C@H](CC(C)C)NC(=O)CNC(=O)[C@H](Cc2ccccc2)NC(=O)[C@@H](NC(=O)CNC(=O)[C@H](CCCNC(=N)N)NC(=O)[C@H](CO)NC(=O)[C@H](CC(C)C)NC(=O)CNC(=O)[C@H](CCCNC(=N)N)NC(=O)CCOCCOCCOCCOCCOCCOCCOCCOCCOCCOCCOCCOC)CSSC[C@@H](C(=O)O)NC(=O)CNC(=O)[C@H](CC(C)C)NC(=O)CNC(=O)[C@H](CO)NC(=O)[C@H](CCSC)NC(=O)[C@H](CO)NC(=O)CNC1=O [PEO12-R-CNP22, K4R] ({CH3O(CH2CH2O)11CH2CH2CO}-RGLSRGCFGLKLDRIGSMSGLGC-OH; disulfide 7-23)	≥ 2.67	–	–	–	–	–	–	much more resistant to NEP degradation than CNP22	–

Structure (SMILES)	cGMP response relative to 1 uM CNP22 (%) at 0.01 µM (NPR-B; [3]) [%]	cGMP response relative to 1 uM CNP22 (%) at 1 µM (NPR-B; [4]) [%]	half-life at 100 uM [1] [h]	half-life in comparison to wtCNP22 (Recombinant human NEP; NEP at 1 ug/ml)	resistance to cleavage at the Cys6-Phe7 bond relative to wtCNP22 (Recombinant human NEP; data not shown)	resistance to cleavage of the Gly8-Leu9 bond (Recombinant human NEP; in the presence of 1 ug/mL NEP, data not shown)	cGMP response relative to 1 uM CNP22 (%) at 0.01 µM (NPR-B; NIH3T3, […]) [%]	cGMP response relative to 1 uM CNP22 (%) at 1 µM (NPR-B; NIH3T3, […]) [%]	resistance to NEP cleavage/degradation (in words) (Recombinant human NEP; [2])	resistance to NEP cleavage/degradation (in words) (Recombinant human NEP)	NPR-B stimulation activity / cGMP production compared with wtCNP22 (in words) (NPR-B; NIH3T3 cells)
CC[C@H](C)[C@@H]1NC(=O)[C@H](CCCNC(=N)N)NC(=O)[C@H](CC(=O)O)NC(=O)[C@H](CC(C)C)NC(=O)[C@H](CCCCN)NC(=O)[C@H](CC(C)C)NC(=O)CNC(=O)[C@H](Cc2ccccc2)NC(=O)[C@@H](NC(=O)CNC(=O)[C@H](CCCCN)NC(=O)[C@H](CO)NC(=O)[C@H](CC(C)C)NC(=O)CNC(=O)CCOCCOCCOCCOCCOCCOCCOCCOCCOCCOCCOCCOCCOCCOCCOCCOCCOCCOCCOCCOCCOCCOCCOCCOC)CSSC[C@@H](C(=O)O)NC(=O)CNC(=O)[C@H](CC(C)C)NC(=O)CNC(=O)[C@H](CO)NC(=O)[C@H](CCSC)NC(=O)[C@H](CO)NC(=O)CNC1=O [PEO24-CNP22]	8 ± 5	46 ± 10	> 2.67	–	–	–	–	–	resistant to NEP degradation over the assay period of 160 minutes	–	–

Reference: patent US8377884B2, “Variants of C-type natriuretic peptides” (Biomarin Pharmaceutical Inc., priority 2007, dated 2013)
